{
  "source": "patent EP0031561B1",
  "about": "“A rectally administered suppository comprising a drug and an adjuvant” (Merck & Co., Inc., priority 1979, dated 1981)",
  "key": {"[1]": {"conditions": "dog, in vivo", "experimental": "Four male beagle dogs weighing 9.5-11 kg are used and are fasted for two days prior to experimentation. Witepsol H-15 is used as an excipient to prepare the suppository formulation of cefmetazole. Microenema formulations are prepared with aqueous 0.02M phosphate buffer with a final pH of 7.4. Either a 1 g suppository or a 1 ml microenema is given to each dog. The formulations may contain varying amounts of adjuvant. Blood samples are taken from the foreleg vein at predetermined sampling times after dosing. Blood samples are heparinized and centrifuged at 3,000 rpm for 10 minutes. The concentration of cefmetazole in the plasma of the dogs is analyzed as a function of time using plasma aliquots for the assay of cefmetazole."}, "[2]": {"experiment": "in situ perfusion method of the rectum (perfusate recirculated through the rat rectum; drug remaining in the perfusate)", "experimental": "In this experiment, the amount of remaining theophylline, originally at a concentration of about 200 mg/ml, in aqueous solution and continually recirculated or perfused to the rectal compartment of the rat, at the end of one hour, is shown as the lower plot for studies carried out in the presence of 0.2% sodium salicylate, is shown as the upper plot.\nA second cannula is inserted through the anus 1 cm inside the rectum and secured by ligation. Thus, about 2 cm of the rectum is exposed to the perfusate. The perfustate (6 ml) is circulated at a rate of 2 ml/min at 38°C. As perfustate, 1/15 M-phosphate buffer solutions are used and the ionic strength of the perfusate is adjusted to 0.75 with sodiumchloride as necessary. […] The amount of drug remaining in the perfusate is analyzed as a function of time by appropriate methods, e.g., by high-pressure liquid chromatography.\nA second cannula is inserted through the anus 1 cm. inside the rectum and secured by ligation. Thus, about 2 cm of the rectum is exposed to the perfusate. The perfusate (6 ml) is circulated at a rate of 2 ml/min at 38°C. As perfusate, 1/15 M-phosphate buffer solutions are used and the ionic strength of the perfusate is adjusted to 0.75 with sodium chloride as necessary. […] The amount of drug remaining in the perfusate is analyzed as a function of time by appropriate methods, e.g. by high-pressure liquid chromatography."}},
  "data": [
    {"molecule": "CO[C@@]1(NC(=O)CSCC#N)C(=O)N2C(C(=O)O)=C(CSc3nnnn3C)CS[C@@H]21", "note": "[cefmetazole, Cefmetazole]", "values": [
      {"measurement": "bioavailability, suppository formulations versus microenema formulations", "setting": "[1]", "result": "greater bioavailability"},
      {"measurement": "rectal absorption of cefmetazole", "setting": "[1]", "result": "significantly enhanced"}
    ]},
    {"molecule": "O=C(O)c1cc(O)ccc1O", "note": "[gentisic acid]", "values": [
      {"measurement": "adjuvant effect on the rectal absorption", "setting": "[2]; Figure 4 (theophylline)", "result": "evident"}
    ]},
    {"molecule": "Cn1c(=O)c2[nH]cnc2n(C)c1=O", "note": "[theophylline, 3,7-Dihydro-1,3-dimethyl-1H-purine-2,6-dione]", "values": [
      {"measurement": "effect of the salicylate on the rate of absorption of theophylline from the rectal compartment", "setting": "[2]; Figure 1, theophylline about 200 mg/ml aqueous solution, amount remaining at end of one hour, 0.2% sodium salicylate, effect greatest below pH 5.5 and above pH 7.5", "result": "marked effect"}
    ]}
  ]
}
